From ChEMBL document CHEMBL1146518, “Phenolic metabolites of Dalea versicolor that enhance antibiotic activity against model pathogenic bacteria” (2004) come the findings set out here.

What is called MIC is the lowest concentration found to suppress growth. Read a low MIC as greater potency.

For one assay, the system named is Staphylococcus aureus. As to the kind of experiment: Antimicrobial activity against Staphylococcus aureus after 18 hrs by serial twofold dilution test. In kind it is functional.
The target of assay [1] is T1, Quinolone resistance protein NorA (Staphylococcus aureus) (UniProt P0A0J7).
T1 sequence (whole entry): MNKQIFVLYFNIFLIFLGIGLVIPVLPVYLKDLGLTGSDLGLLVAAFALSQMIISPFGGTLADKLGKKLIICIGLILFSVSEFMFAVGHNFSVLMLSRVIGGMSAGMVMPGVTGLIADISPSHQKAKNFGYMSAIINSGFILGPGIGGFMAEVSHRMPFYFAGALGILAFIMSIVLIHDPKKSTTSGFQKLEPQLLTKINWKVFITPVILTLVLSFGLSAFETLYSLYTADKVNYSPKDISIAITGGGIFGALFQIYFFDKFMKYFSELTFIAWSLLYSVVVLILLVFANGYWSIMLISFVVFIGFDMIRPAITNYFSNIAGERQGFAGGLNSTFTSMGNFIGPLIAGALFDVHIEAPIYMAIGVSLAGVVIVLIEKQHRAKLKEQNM
Kind of assay: Inhibition of NorA MDR efflux pump in Staphylococcus aureus assessed as increase in antimicrobial activity of berberine at 10 ug/ml after 18 hrs by twofold serial dilution method.

The subject of a further assay is Bacillus cereus. As to the kind of experiment: Inhibition of NorA MDR efflux pump in Bacillus cereus assessed as fold increase in antimicrobial activity of berberine at 10 ug/ml after 24 hrs by twofold serial dilution method.
For assay [2], the target named is T1, Quinolone resistance protein NorA (Staphylococcus aureus). As to the kind of experiment: Inhibition of NorA MDR efflux pump in Staphylococcus aureus assessed as increase in antimicrobial activity of erythromycin at 10 ug/ml after 18 hrs by twofold serial dilution method.
The target is the same in assay [3]. As to the kind of experiment: Inhibition of NorA MDR efflux pump in Staphylococcus aureus assessed as increase in antimicrobial activity of tetracycline at 10 ug/ml after 18 hrs by twofold serial dilution method.

In brackets after ≈: the same amount, converted by molar mass. Activity calls are given as the source filed them. No cut-off for these calls is given here.

The molecule `C=CC(C)(C)c1cc(C2COc3c(CC=C(C)C)c(O)cc(O)c3C2=O)c(O)cc1O` (stereo not drawn) [DALVERSINOL A] had an MIC in the assay on Staphylococcus aureus of 31.3 µg/mL (≈ 73.7 µM).

`COc1c(C)c(O)c(C)c(O)c1C(=O)/C=C/c1ccccc1`: the outcome in assay [1], in assay [2] and in assay [3] was Active. Further, the fold change (FC) in the assay with Bacillus cereus was determined as 30. Further, in the assay on Staphylococcus aureus, the MIC is 250 µg/mL (≈ 838 µM).

Molecule `C=CC(C)(C)c1cc([C@@H]2CC(=O)c3c(O)cc(O)c(CC=C(C)C)c3O2)c(O)cc1O` yielded an MIC in the assay with Staphylococcus aureus of 7.8 µg/mL (≈ 18.4 µM).

Regarding `COc1ccc(/C=C/c2cc(OC)cc(OC)c2)cc1` [TRISMETHOXYRESVERATROL], the MIC against Staphylococcus aureus was found to be 500 µg/mL (≈ 1850 µM).
